In PubChem BioAssay AID258 (DTP/NCI, 2004):
“And” between values parts separate entries of the source, which are not always exact repeats. Equal values may be shown once. Toxic doses and inconclusive results are not listed. The calls were made as follows: active = survival T/C of 150% or more; inactive = T/C below 125% in these data.

Test system: CD2F1 mice, L1210 leukemia sc, survival T/C
Test: NCI In Vivo Anticancer Drug Screen. Data for tumor model L1210 Leukemia (subcutaneous) in CD2F1 (CDF1) mice
Settings: endpoint: median survival time, higher = longer survival
Method in brief: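 Transplantable tumor-bearing mice were treated with compound; survival or tumor size measured and expressed as treated-group value (T) divided by vehicle-treated control value (C).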

Measured: T/C

COc1cccc2c1C(=O)c1c(O)c3c(c(O)c1C2=O)C[C@@](O)(C(=O)CO)C[C@@H]3OC1CC(N)C(O)C(C)O1 (stereo partly drawn)
inactive: dose: 0.25 mg/kg/injection, schedule: Q01DX009 (ip), vehicle: saline 101 % of control and 98 % of control | dose: 0.25 mg/kg/injection, schedule: Q01DX009 (sc), vehicle: saline 98 % of control | dose: 0.5 mg/kg/injection, schedule: Q01DX009 (ip), vehicle: saline 103 % of control and 107 % of control and 98 % of control | dose: 0.5 mg/kg/injection, schedule: Q01DX009 (sc), vehicle: saline 101 % of control | dose: 1.0 mg/kg/injection, schedule: Q01DX009 (ip), vehicle: saline 100 % of control and 106 % of control and 123 % of control | dose: 1.0 mg/kg/injection, schedule: Q01DX009 (sc), vehicle: saline 110 % of control | dose: 2.0 mg/kg/injection, schedule: Q01DX009 (ip), vehicle: saline 111 % of control and 115 % of control and 123 % of control | dose: 2.0 mg/kg/injection, schedule: Q01DX009 (sc), vehicle: saline 117 % of control and 120 % of control | dose: 2.5 mg/kg/injection, schedule: Q01DX009 (sc), vehicle: saline 114 % of control | dose: 3.0 mg/kg/injection, schedule: Q01DX009 (sc), vehicle: saline 116 % of control | dose: 3.5 mg/kg/injection, schedule: Q01DX009 (sc), vehicle: saline 120 % of control | dose: 4.0 mg/kg/injection, schedule: Q01DX009 (ip), vehicle: saline 110 % of control and 92 % of control and 97 % of control | dose: 5.0 mg/kg/injection, schedule: Q01DX009 (sc), vehicle: saline 116 % of control | dose: 6.0 mg/kg/injection, schedule: Q01DX009 (sc), vehicle: saline 102 % of control | dose: 8.0 mg/kg/injection, schedule: Q01DX009 (sc), vehicle: saline 113 % of control and 89 % of control

COc1ccc2c(c1OC)C(=O)O[C@@H]2[C@H]1c2c(cc3c(c2OC)OCO3)CCN1C
inactive: dose: 14.0 mg/kg/injection, schedule: Q01DX Z (sc), vehicle: water 100 % of control | dose: 23.0 mg/kg/injection, schedule: Q01DX Z (sc), vehicle: water 100 % of control | dose: 39.0 mg/kg/injection, schedule: Q01DX Z (sc), vehicle: water 100 % of control | dose: 65.0 mg/kg/injection, schedule: Q01DX Z (sc), vehicle: water 100 % of control | dose: 108.0 mg/kg/injection, schedule: Q01DX Z (sc), vehicle: water 100 % of control | dose: 180.0 mg/kg/injection, schedule: Q01DX Z (sc), vehicle: water 100 % of control | dose: 300.0 mg/kg/injection, schedule: Q01DX Z (sc), vehicle: water 100 % of control | dose: 500.0 mg/kg/injection, schedule: Q01DX Z (sc), vehicle: water 100 % of control
